Experimental data published in patent US20020054941A1, “Methods and compositions to enhance tenderness and value of meat” (The Board of Regents of the University of Nebraska, priority 2000, published 2002).
Marks after values point to notes of the source that are not given here.

Key:
[1] = test system: sternomandibularis beef muscles; assay: pH of pre-rigor injected sectioned muscle; conditions: injection 10% of muscle weight, 200 mM (glucose, calcium chloride 300 mM)
Protocol: (§1) Pre-rigor beef muscle was sectioned and the sections were injected at approximately 1 hour post-mortem with a volume of treatment solution equal to 10% of the muscle weight. Objective color measurements were taken on pieces of each muscle section and the pieces were then frozen, powdered and stored at −80° C. for up to 10 days before testing pH and analyzing oxidation-reduction potential. Shear force was evaluated as described immediately above. Solutions used in this procedure were as follows: sodium citrate (200 mM), sodium acetate (200 mM), glucose (300 mM), calcium citrate (200 mM), calcium chloride (300 mM), injection with water, and no injection (control). The calcium citrate solution was prepared as a suspension using 0.25% carrageenan and 200 mM calcium citrate due to its insolubility in water. However, use of calcium citrate can be optimized by increasing solubility by means known in the art.

[2] = test system: sternomandibularis beef muscles; assay: Shear force of pre-rigor injected sectioned muscle; conditions: 200 mM (glucose, calcium chloride 300 mM)
Protocol: Pre-rigor beef muscle was sectioned into 100 g. samples at approximately 3 hours post-mortem. The pieces were injected with 10 mL of treatment solution followed by marination in the solution for 24 hours at 2° C. before testing pH and recording visual color of the muscle sections. For evaluation of shear force, samples were thawed, cooked, sliced (approximately 6 mm by 6 mm) and then cooled before readings were taken. The solutions used for this procedure were as described above for homogenized muscle.
as §1

[3] = test system: semimembranosus beef muscles; assay: Muscle pH, pre-rigor injection of whole muscle
Protocol: (§2) Experiment were conducted to test the effects of pre-rigor injection of several compounds. Effects of these compounds on pH, color, tenderness and other related traits of low-value beef cuts were investigated. Ten steers (22 to 24 mo of age, 515 to 676 kg live weight) were slaughtered according to current industry procedures. Pre-rigor semimembranosus (from the round), triceps brachii and supraspinatus muscles (from the chuck) were excised, after evisceration (approximately 1 hour post-mortem), from both sides of the carcass. Muscle sections were randomly assigned to the treatments: sodium citrate (NaC; 200 mM), sodium fluoride (NaF; 200 mM), sodium acetate (NaA; 200 mM), and calcium chloride (CaCl2; 300 mM). The control samples remained on the carcass at 2° C. for 24 hours to simulate commercial conditions. Following a cooling, control muscles were removed from each carcass (4 replicates), vacuum packaged and transferred to the holding cooler with the other cuts at 2° C. Calcium chloride treatment was included to be compared with the other treatments.
(§3) At 2 hours post-mortem, each muscle was injected with a volume equal to 8% of the muscle weight using a four-needle hand injector. The temperature of solutions were 4° C. Each muscle was individually treated (2% of solution was added to give a total of 10% of muscle weight) and tumbled in a 75-pound capacity tumbler (Röschermatic, Oshabrück, Germany) for 30 min to insure uniform distribution of the solution.
(§4) Samples of each muscle (approximately 100 g) were taken at 0 hour (before injection), 24, and 72 hours after injection for determination of pH, oxidation-reduction potential, glycogen content, R-values, NAD, and NADH. The samples were then immediately frozen in liquid nitrogen and stored at −80° C. until they were powdered and analyzed. Fresh muscle samples (approximately 20 g) were taken at 72 hours after injection and assayed immediately for water holding capacity and sarcomere length.
(§5) Duplicate pre-rigor samples (5 g) were weighed from powdered sample and homogenized (Polytron, Brinkman Instruments, New York, N.Y.) in 50 mL of 5 mM iodoacetic acid, 150 mM potassium chloride (pH 7.0, 24° C.) to stop glycolysis (Ahn et al., 1992). The pH of the suspension was measured with a general purpose electrode (Corning Glass Works, Corning, N.Y.) attached to an Orion Model SA 720 pH meter (Orion Research, Inc., Boston, Mass.). Post-rigor muscle pH was determined by homogenizing 5 g of sample in 50 mL of deionized water (Winger et al., 1979).

[4] = test system: supraspinatus beef muscles; assay: Muscle pH, pre-rigor injection of whole muscle
Protocol: as §2, §3, §4, §5

[5] = test system: triceps brachii beef muscles; assay: Muscle pH, pre-rigor injection of whole muscle; conditions: 200 mM, calcium chloride 300 mM
Protocol: as §2, §3, §4, §5

[6] = test system: semimembranosus beef muscles; assay: Glycogen content, pre-rigor injection of whole muscle
Protocol: as §2, §3, §4
(§6) Glycogen extraction was performed in duplicate with 3 g of frozen-powdered muscle sample, which was homogenized with 0.6 N perchloric acid. Amylo-α-1,4-α-1,6- glucosidase from Aspergillus niger (No. A3514. Sigma Chemical, St. Louis, Mo.) was used for the breakdown of the glycogen molecules to free glucose following the method described by Roehrig and Allred (1974). Homogenate was incubated for 2 hours at 37° C., then 100 μL of 3 N perchloric acid was added to precipitate the proteins. After centrifugation, the supernatant was stored at 0-4° C., until analyzed, which was within 2 weeks.
(§7) The assay for glucose was run as described by Dalrymple and Hamm (1973) and Roehrig and Allred (1974), using glucose-6-phosphate dehydrogenase (No. G8878. Sigma Chemical, St. Louis, Mo.) and hexokinase (No. H5500. Sigma Chemical, St. Louis, Mo.). Briefly, the method involves an exoglucosidase, Amylogucosidase, from Aspergillus niger which hydrolyses the -α-D-(1-4) and -α-D-(1-6)-linkages of glycogen. The glucose formed is specifically determined with hexokinase and glucose-6-phosphate dehydrogenase. The glucose liberated after hydrolysis of glycogen is proportional to the increase of absorbance measured at 340 nm. Fifty μL of sample was incubated with 1 mL ATP, NADP, Glucose-6-phosphate dehydrogenase buffer and 5 μL hexokinase at 37° C. for 15 min. Absorbance was measured at 340 nm wavelength, light path=1 cm. The muscle glycogen content was calculated with the following formula: Glycogen (μmol glucose/g wet muscle weight)=111.882×absorbance. 111.882 is the dilution factor.

[7] = test system: supraspinatus beef muscles; assay: as above
Protocol: as §2, §3, §4, §6, §7

[8] = test system: triceps brachii beef muscles; assay: as above; conditions: 200 mM, calcium chloride 300 mM
Protocol: as §2, §3, §4, §6, §7

[9] = test system: semimembranosus beef muscles; assay: Warner-Bratzler shear force, pre-rigor injection of whole muscle; conditions: 200 mM, calcium chloride 300 mM
Protocol: as §2, §3
(§8) Tenderness of samples was evaluated by measuring Warner-Bratzler shear force. Steaks (2.54-cm thick) from the middle of each muscle were cut and frozen at 3, 7 and 14 days postmortem. Frozen steaks (2.54 cm thick) were thawed at 4° C. for 24 hours and cooked on Farberware Open Hearth Broilers (Model 350A Walter Kidde, Bronx, N.Y.) to an internal temperature of 40° C., turned, and cooked to a final internal temperature of 70° C. (AMSA, 1995). Temperature was monitored using an OMEGA thermocouple thermometer type T (Omega Engineering, Inc., Stamford, Conn.) inserted into the geometric center of a steak. The cooked steaks were chilled 2 hours at 2° C., and then 8 cores (1.27-cm diameter) were removed parallel to the muscle fiber orientation. Cores were sheared once each on an Instron Universal Testing Machine model 55R1123 (Instron, Canton, Mass.) with a Warner-Braztler attachment. The Instron was set up with a 500 kg load cell, full scale load=1 (0-10 kg), and crosshead speed=250 mm/mim.

[10] = test system: supraspinatus beef muscles; assay: as above; conditions: 200 mM, calcium chloride 300 mM; for Shear force, 7 d: 7 d postmortem
Protocol: as §2, §3, §8

[11] = test system: triceps brachii beef muscles; assay: as above; conditions: 200 mM, calcium chloride 300 mM
Protocol: as §2, §3, §8

[12] = 24 h, 200 mM, calcium chloride 300 mM
[13] = 72 h, 200 mM, calcium chloride 300 mM

For CC(=O)[O-].[Na+] [Sodium acetate, sodium acetate], the “PH (0 h)” value ([1]; 0 h) was 6.86, the “pH, 72 h” value ([1]; 72 h) was 5.80^cd and the “Shear force, kg (72 h)” value [2] was 9.88^ab kg. For the same compound, the “pH, 0 h” value ([3]; 0 h (before injection)) was 6.75, the “pH, 24 h” value [3, 12] was 5.70^b and the “pH, 72 h” value [3, 13] was 5.38^d. For the same compound, the “pH, 0 h” value ([4]; 0 h (before injection)) was 6.81, the “pH, 24 h” value [4, 12] was 5.85^c and the “pH, 72 h” value [4, 13] was 5.64^c. For the same compound, the “pH, 0 h” value ([5]; 0 h (before injection)) was 6.78, the “pH, 24 h” value ([5]; 24 h after injection) was 5.80^b and the “pH, 72 h” value ([5]; 72 h after injection) was 5.48^c. The “Glycogen, 0 h” value ([6]; 0 h (before injection)) was 64.24 μmol/g muscle, the “Glycogen, 24 h” value [6, 12] was 40.88^b μmol/g muscle and the “Glycogen, 72 h” value [6, 13] was 28.64^b μmol/g muscle. The “Glycogen, 0 h” value ([7]; 0 h (before injection)) was 42.83 μmol/g muscle, the “Glycogen, 24 h” value [7, 12] was 24.43 μmol/g muscle and the “Glycogen, 72 h” value [7, 13] was 18.10^b μmol/g muscle. For the same compound, the “Glycogen, 0 h” value ([8]; 0 h (before injection)) was 49.53 μmol/g muscle, the “Glycogen, 24 h” value ([8]; 24 h) was 28.74^b μmol/g muscle and the “Glycogen, 72 h” value ([8]; 72 h) was 27.22^b μmol/g muscle. The “Shear force, 3 d” value ([9]; 3 d postmortem) was 6.61 kg, the “Shear force, 7 d” value ([9]; 7 d postmortem) was 5.78 kg and the “Shear force, 14 d” value ([9]; 14 d postmortem) was 5.08 kg. The “Shear force, 3 d” value ([10]; 3 d postmortem) was 7.85^a kg, the “Shear force, 7 d” value [10] was 6.95^a kg and the “Shear force, 7 d” value ([10]; listed as NaA) was “significant increase in shear force”. The “Shear force, 3 d” value ([11]; 3 d postmortem) was 6.47^a kg, the “Shear force, 7 d” value ([11]; 7 d postmortem) was 5.96^a kg and the “Shear force, 14 d” value ([11]; 14 d postmortem) was 4.67 kg.
